Data as given in patent publication US10919852B2, “Immunomodulator compounds” (CHEMOCENTRYX, INC., priority 2017, dated 2021).

Molecular target: human PD-L1 / Human PD-1 (Homo sapiens (Human), UniProt Q9NZQ7)
Test: Enzyme-Linked Immunosorbent Assay (ELISA), PD-1/PD-L1 binding
Conditions: plate-coated human PD-L1, biotinylated human PD-1
Method: Biological Example: Enzyme-Linked Immunosorbent Assay—ELISA
96 Well plates were coated with […] of human PD-L1 (obtained from R&D) in PBS overnight at 4° C. The wells were then blocked with 2% BSA in PBS (W/V) with 0.05% TWEEN-20 for 1 hour at 37° C. The plates were washed 3 times with PBS/0.05% TWEEN-20 and the compounds were serial diluted (1:5) in dilution medium and added to the ELISA plates. Human PD-1 and biotin 0.3 μg/mL (ACRO Biosystems) were added and incubated for 1 hour at 37° C. then washed 3 times with PBS/0.05% TWEEN-20. A second block was performed with 2% BSA in PBS (W/V)/0.05% TWEEN-20 for 10 min at 37° C. and was washed 3 times with PBS/0.05% TWEEN-20. Streptavidin-HRP was added for 1 hour at 37° C. then washed 3 times with PBS/0.05% TWEEN-20. TMB substrate was added and reacted for 20 min at 37° C. A stop solution (2 N aqueous H2SO4) was added. The absorbance was read at 450 nm using a micro-plate spectrophotometer.

human PD-L1 / Human PD-1, sequence (Q9NZQ7 19-239): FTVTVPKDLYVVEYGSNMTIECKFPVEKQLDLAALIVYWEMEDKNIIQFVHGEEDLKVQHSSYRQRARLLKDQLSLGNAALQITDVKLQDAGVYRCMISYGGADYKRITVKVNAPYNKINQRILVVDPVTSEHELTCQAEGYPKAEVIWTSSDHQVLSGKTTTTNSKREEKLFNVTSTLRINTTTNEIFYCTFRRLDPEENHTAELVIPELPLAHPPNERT

| SMILES | IC50 [nM] |
| --- | --- |
| CCOc1cc(O[C@H]2CCc3c(-c4cccc(OCCCN5CCC(O)CC5)c4C)cccc32)c(Cl)cc1CN[C@H](C(=O)O)[C@@H](C)O | < 5 |
| CCOc1cc(O[C@H]2CCc3c(-c4cccc(OCCCN5CC[C@@H](O)C5)c4C)cccc32)c(Cl)cc1CN[C@@H](CO)C(=O)O | < 5 |
| CCOc1cc(O[C@H]2CCc3c(-c4cccc(OCCCN5CC[C@@H](O)C5)c4C)cccc32)c(Cl)cc1CN[C@H](C(=O)O)[C@@H](C)O | < 5 |
| CCOc1cc(O[C@H]2CCc3c(-c4cccc(OCCCN5CC[C@@H](O)C5)c4C)cccc32)c(Cl)cc1CNC(C)(CO)C(=O)O (some centres unmarked) | < 5 |
| Cc1c(OCCCN2CC(F)C2)cccc1-c1cccc2c1CC[C@@H]2Oc1cc(OCc2cncc(C#N)c2)c(CNCC2CCC(=O)N2)cc1Cl (some centres unmarked) | < 5 |
| N#Cc1cc(C#N)cc(COc2cc(O[C@@H]3c4cccc(-c5cccc(OCCCN6CC(O)C6)c5Cl)c4C[C@@H]3F)c(Cl)cc2CNC[C@H]2CCC(=O)N2)c1 | < 5 |
| C[C@@](CO)(NCc1cc(Cl)c(O[C@@H]2c3cccc(-c4cccc(OCCCN5CC(O)C5)c4Cl)c3C[C@@H]2F)cc1OCc1cc(C#N)cc(C#N)c1)C(=O)O | < 5 |
| N#Cc1cncc(COc2cc(O[C@H]3CCc4c(-c5cccc(OCCCN6CC(O)C6)c5C(F)(F)F)cccc43)c(Cl)cc2CNCC2CCC(=O)N2)c1 (some centres unmarked) | 5 to 500 |
| Cc1c(OCCCN2CC3(CC(F)C3)C2)cccc1-c1cccc2c1CC[C@@H]2Oc1cc(OCc2cncc(C#N)c2)c(CNCC2CCC(=O)N2)cc1Cl (some centres unmarked) | 5 to 500 |
| CCOc1cc(O[C@H]2CCc3c(-c4cccc(OCCCN5CC(O)C5)c4Cl)cccc32)c(Cl)cc1CN[C@@H]1CCCC[C@@H]1O | 5 to 500 |
| CCOc1cc(O[C@H]2CCc3c(-c4cccc(OCCCN5CC(O)C5)c4Cl)cccc32)c(Cl)cc1CNCC1CCC(=O)N1 (some centres unmarked) | 5 to 500 |
| N#Cc1cncc(COc2cc(O[C@H]3CCc4c(-c5cccc(OCCCN6CC(F)(F)C6)c5Cl)cccc43)c(Cl)cc2CN[C@@H]2CCCC[C@@H]2O)c1 | 5 to 500 |
| N#Cc1cncc(COc2cc(O[C@H]3CCc4c(-c5cccc(OCCCN6CC[C@@H](F)C6)c5Cl)cccc43)c(Cl)cc2CN[C@@H]2CCCC[C@@H]2O)c1 | < 5 |
| N#Cc1cncc(COc2cc(O[C@H]3CCc4c(-c5cccc(OCCCN6CCC(F)CC6)c5Cl)cccc43)c(Cl)cc2CN[C@@H]2CCCC[C@@H]2O)c1 | < 5 |
| N#Cc1cncc(COc2cc(O[C@H]3CCc4c(-c5cccc(OCCCN6CC[C@H](F)C6)c5Cl)cccc43)c(Cl)cc2CN[C@@H]2CCCC[C@@H]2O)c1 | < 5 |
| N#Cc1cc(C#N)cc(COc2cc(O[C@@H]3c4cccc(-c5cccc(OCCCN6CCC(F)CC6)c5Cl)c4C[C@H]3F)c(Cl)cc2CNC[C@H]2CCC(=O)N2)c1 | 5 to 500 |
| N#Cc1cc(C#N)cc(COc2cc(O[C@@H]3c4cccc(-c5cccc(OCCCN6CC(F)C6)c5Cl)c4C[C@H]3F)c(Cl)cc2CNC[C@H]2CCC(=O)N2)c1 | 5 to 500 |
| CCOc1cc(O[C@H]2CCc3c(-c4cccc(OCCCN5CCC(F)CC5)c4Cl)cccc32)c(Cl)cc1CNC(C)(CO)CO | 5 to 500 |
| CCOc1cc(O[C@@H]2c3cccc(-c4cccc(OCCCN5CCC(F)CC5)c4Cl)c3C[C@@H]2F)c(Cl)cc1CNC[C@H]1CCC(=O)N1 | 5 to 500 |
| CCOc1cc(O[C@@H]2c3cccc(-c4cccc(OCCCN5CCC(F)CC5)c4Cl)c3C[C@@H]2F)c(Cl)cc1CN[C@@H]1CCCC[C@@H]1O | 5 to 500 |
| CC1(O)CN(CCCOc2cccc(-c3cccc4c3CC[C@@H]4Oc3cc(OCc4cncc(C#N)c4)c(CN[C@@](C)(CO)C(=O)O)cc3Cl)c2Cl)C1 | < 5 |
| CCOc1cc(O[C@@H]2c3cccc(-c4cccc(OCCCN5CC(F)C5)c4Cl)c3C[C@@H]2F)c(Cl)cc1CN[C@@](C)(CO)C(=O)O | 5 to 500 |

| SMILES | IC50 [nM] |
| --- | --- |
| CCOC(=O)[C@](C)(CO)NCc1cc(Cl)c(O[C@H]2CCc3c(-c4cccc(OCCCN5CC(O)C5)c4Cl)cccc32)cc1OCc1cncc(C#N)c1 | < 5 |
| CCOc1cc(O[C@@H]2c3cccc(-c4cccc(OCCCN5CC(O)C5)c4Cl)c3C[C@@H]2F)c(Cl)cc1CN[C@@](C)(CO)C(=O)O | 5 to 500 |
| C[C@@](CO)(NCc1cc(Cl)c(O[C@@H]2c3cccc(-c4cccc(OCCCN5CC(O)C5)c4Cl)c3C[C@@H]2F)cc1OCc1cncc(C#N)c1)C(=O)O | < 5 |
| C[C@@](CO)(NCc1cc(Cl)c(O[C@@H]2c3cccc(-c4cccc(OCCCN5CC(F)C5)c4Cl)c3C[C@@H]2F)cc1OCc1cncc(C#N)c1)C(=O)O | < 5 |
| COc1cc(O[C@H]2CCc3c(-c4cccc(OCCCN5CCC(F)CC5)c4Cl)cccc32)c(Cl)cc1CN[C@@H]1CCCC[C@@H]1O | 5 to 500 |
| CCOc1cc(O[C@H]2CCc3c(-c4cccc(OCCCN5CC(O)C5)c4Cl)cccc32)c(Cl)cc1CN[C@@](C)(CO)C(=O)O | < 5 |
| CC(CO)(NCc1cc(Cl)c(O[C@H]2CCc3c(-c4cccc(OCCCN5CC(O)C5)c4Cl)cccc32)cc1OCc1cccnc1)C(=O)O (some centres unmarked) | < 5 |
| CC(CO)(NCc1cc(Cl)c(O[C@H]2CCc3c(-c4cccc(OCCCN5CCOCC5)c4Cl)cccc32)cc1OCc1cncc(C#N)c1)C(=O)O (some centres unmarked) | < 5 |
| CC(CO)(NCc1cc(Cl)c(O[C@H]2CCc3c(-c4cccc(OCCCN5CC(O)C5)c4Cl)cccc32)cc1OCc1cncc(Cl)c1)C(=O)O (some centres unmarked) | < 5 |
| CC(CO)(NCc1cc(Cl)c(O[C@H]2CCc3c(-c4cccc(OCCCN5CC(F)C5)c4Cl)cccc32)cc1OCc1cncc(C#N)c1)C(=O)O (some centres unmarked) | < 5 |
| C[C@@](CO)(NCc1cc(Cl)c(O[C@H]2CCc3c(-c4cccc(OCCCN5CC(O)C5)c4Cl)cc(F)cc32)cc1OCc1cncc(C#N)c1)C(=O)O | < 5 |
| CC(CO)(NCc1cc(Cl)c(O[C@H]2CCc3c(-c4cccc(OCCCN5CC6(CC(O)C6)C5)c4Cl)cccc32)cc1OCc1cncc(C#N)c1)C(=O)O (some centres unmarked) | < 5 |
| CC(CO)(NCc1cc(Cl)c(O[C@H]2CCc3c(-c4cccc(OCCCN5CC6(CC(F)C6)C5)c4Cl)cccc32)cc1OCc1cncc(C#N)c1)C(=O)O (some centres unmarked) | < 5 |
| N#Cc1cncc(COc2cc(O[C@H]3CCc4c(-c5cccc(OCCCN6CC(O)C6)c5Cl)cccc43)c(Cl)cc2CN2CCC3(C2)NC(=O)NC3=O)c1 (some centres unmarked) | 5 to 500 |
| N#Cc1cncc(COc2cc(O[C@H]3CCc4c(-c5cccc(OCCCN6CC(O)C6)c5Cl)cccc43)c(Cl)cc2CN[C@@H]2CCCC[C@@H]2O)c1 | < 5 |
| N#Cc1cncc(COc2cc(O[C@H]3CCc4c(-c5cccc(OCCCN6CCC(F)CC6)c5Cl)cccc43)c(Cl)cc2CNC[C@@H]2CCC(=O)N2)c1 | < 5 |
| C[C@@H](O)[C@H](NCc1cc(Cl)c(O[C@H]2CCc3c(-c4cccc(OCCCN5CC(O)C5)c4Cl)cccc32)cc1OCc1cncc(C#N)c1)C(=O)NS(C)(=O)=O | < 5 |
| N#Cc1cncc(COc2cc(O[C@H]3CCc4c(-c5cccc(OCCCN6CC(O)C6)c5Cl)cccc43)c(Cl)cc2CN2CC(O)C2)c1 | < 5 |
| N#Cc1cncc(COc2cc(O[C@H]3CCc4c(-c5cccc(OCCCN6CC(O)C6)c5Cl)cccc43)c(Cl)cc2CN2CCC(O)CC2)c1 | < 5 |
| C[C@@H](O)[C@H](NCc1cc(Cl)c(O[C@H]2CCc3c(-c4cccc(OCCCN5CC(O)C5)c4Cl)cccc32)cc1OCc1cncc(C#N)c1)C(N)=O | < 5 |
| Cc1c(OCCCN2CCC(F)CC2)cccc1-c1cccc2c1CC[C@@H]2Oc1cc(OCc2cncc(C#N)c2)c(CNC[C@@H]2CCC(=O)N2)cc1Cl | < 5 |
| N#Cc1cncc(COc2cc(O[C@H]3CCc4c(-c5cccc(OCCCN6CC(O)C6)c5Cl)cccc43)c(Cl)cc2CN2CC[C@@H](O)C2)c1 | < 5 |
